Data on 1 compound can be found in BindingDB's records for doi:10.1002/(SICI)1098-2396(200002)35:2<79::AID-SYN1>3.0.CO;2-X (Institut De Recherches Servier, 2000).

Test [1] has as its target T1, Alpha-2C adrenergic receptor (Homo sapiens, UniProt P18825).
T1 sequence (P18825 whole entry): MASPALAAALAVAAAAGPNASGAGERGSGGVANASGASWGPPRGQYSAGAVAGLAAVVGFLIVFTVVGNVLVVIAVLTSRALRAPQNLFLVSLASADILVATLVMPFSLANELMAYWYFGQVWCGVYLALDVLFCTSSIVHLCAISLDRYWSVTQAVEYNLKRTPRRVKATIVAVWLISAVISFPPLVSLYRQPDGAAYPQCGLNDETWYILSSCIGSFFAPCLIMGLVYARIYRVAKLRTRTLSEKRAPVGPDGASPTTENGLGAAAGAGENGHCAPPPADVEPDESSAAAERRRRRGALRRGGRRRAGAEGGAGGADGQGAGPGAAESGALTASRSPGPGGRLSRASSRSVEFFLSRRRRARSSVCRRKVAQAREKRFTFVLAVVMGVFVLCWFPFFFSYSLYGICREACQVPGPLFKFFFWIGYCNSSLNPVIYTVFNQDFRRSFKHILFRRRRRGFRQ

For test [2], the target named is T2, 5-hydroxytryptamine receptor 1A (Rattus norvegicus, UniProt P19327).
T2 sequence (P19327 whole entry): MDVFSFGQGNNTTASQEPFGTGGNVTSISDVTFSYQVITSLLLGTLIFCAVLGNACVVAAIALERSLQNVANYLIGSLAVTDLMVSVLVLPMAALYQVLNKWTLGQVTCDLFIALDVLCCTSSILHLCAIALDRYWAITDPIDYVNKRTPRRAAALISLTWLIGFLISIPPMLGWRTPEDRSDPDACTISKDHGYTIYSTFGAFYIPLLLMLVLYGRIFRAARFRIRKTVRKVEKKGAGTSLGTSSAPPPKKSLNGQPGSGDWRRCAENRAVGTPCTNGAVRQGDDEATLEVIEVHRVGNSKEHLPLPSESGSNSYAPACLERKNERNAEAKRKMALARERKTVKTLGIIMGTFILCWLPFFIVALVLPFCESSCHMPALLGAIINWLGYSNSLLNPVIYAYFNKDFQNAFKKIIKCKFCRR

The target in test [3] is T3, Alpha-2A adrenergic receptor [16-465] (Rattus norvegicus, UniProt P22909).
T3 construct: 16-465
T3 sequence (P22909 whole entry): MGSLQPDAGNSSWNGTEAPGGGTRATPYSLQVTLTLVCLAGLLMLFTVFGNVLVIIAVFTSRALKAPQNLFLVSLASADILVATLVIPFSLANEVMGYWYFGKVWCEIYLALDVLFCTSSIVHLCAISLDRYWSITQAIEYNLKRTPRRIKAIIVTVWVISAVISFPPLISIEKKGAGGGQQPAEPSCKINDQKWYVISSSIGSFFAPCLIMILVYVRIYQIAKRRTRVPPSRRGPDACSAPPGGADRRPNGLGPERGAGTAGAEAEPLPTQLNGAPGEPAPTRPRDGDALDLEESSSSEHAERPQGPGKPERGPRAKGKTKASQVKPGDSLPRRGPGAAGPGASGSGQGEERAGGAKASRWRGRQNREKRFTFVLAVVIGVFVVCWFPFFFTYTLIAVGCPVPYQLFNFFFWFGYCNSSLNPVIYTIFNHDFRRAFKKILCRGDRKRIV

The target in test [4] is T4, Alpha-2C adrenergic receptor (Rattus norvegicus, UniProt P22086).
T4 sequence (P22086 whole entry): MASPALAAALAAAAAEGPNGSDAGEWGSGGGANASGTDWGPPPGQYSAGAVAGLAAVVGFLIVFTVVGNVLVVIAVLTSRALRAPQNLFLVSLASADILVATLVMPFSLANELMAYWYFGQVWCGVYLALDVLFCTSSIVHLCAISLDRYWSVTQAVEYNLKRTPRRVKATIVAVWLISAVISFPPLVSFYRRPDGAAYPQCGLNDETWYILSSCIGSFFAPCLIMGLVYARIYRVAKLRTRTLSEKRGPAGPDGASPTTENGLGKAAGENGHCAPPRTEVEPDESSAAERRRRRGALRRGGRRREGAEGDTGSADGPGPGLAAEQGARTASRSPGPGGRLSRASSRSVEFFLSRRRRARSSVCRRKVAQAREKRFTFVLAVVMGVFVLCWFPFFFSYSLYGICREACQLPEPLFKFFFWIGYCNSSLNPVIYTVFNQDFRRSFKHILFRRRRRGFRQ

In test [5] the target is T5, Alpha-2A adrenergic receptor (Homo sapiens, UniProt P08913).
T5 sequence (P08913 whole entry): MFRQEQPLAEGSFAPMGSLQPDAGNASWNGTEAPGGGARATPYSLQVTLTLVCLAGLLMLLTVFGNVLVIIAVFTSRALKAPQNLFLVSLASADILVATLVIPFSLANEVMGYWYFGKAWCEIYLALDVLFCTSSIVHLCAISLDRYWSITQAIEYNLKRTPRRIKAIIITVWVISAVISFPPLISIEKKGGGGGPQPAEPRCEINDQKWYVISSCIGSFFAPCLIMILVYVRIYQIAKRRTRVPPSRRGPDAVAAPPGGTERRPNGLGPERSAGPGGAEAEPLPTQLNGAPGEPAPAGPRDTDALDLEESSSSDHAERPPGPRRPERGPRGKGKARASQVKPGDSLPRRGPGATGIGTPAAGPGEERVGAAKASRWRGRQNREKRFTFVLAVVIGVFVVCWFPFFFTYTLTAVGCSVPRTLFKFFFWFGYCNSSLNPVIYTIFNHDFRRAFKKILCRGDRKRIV

The target of test [6] is T6, Alpha-1B adrenergic receptor (Homo sapiens, UniProt P35368).
T6 sequence (P35368 whole entry): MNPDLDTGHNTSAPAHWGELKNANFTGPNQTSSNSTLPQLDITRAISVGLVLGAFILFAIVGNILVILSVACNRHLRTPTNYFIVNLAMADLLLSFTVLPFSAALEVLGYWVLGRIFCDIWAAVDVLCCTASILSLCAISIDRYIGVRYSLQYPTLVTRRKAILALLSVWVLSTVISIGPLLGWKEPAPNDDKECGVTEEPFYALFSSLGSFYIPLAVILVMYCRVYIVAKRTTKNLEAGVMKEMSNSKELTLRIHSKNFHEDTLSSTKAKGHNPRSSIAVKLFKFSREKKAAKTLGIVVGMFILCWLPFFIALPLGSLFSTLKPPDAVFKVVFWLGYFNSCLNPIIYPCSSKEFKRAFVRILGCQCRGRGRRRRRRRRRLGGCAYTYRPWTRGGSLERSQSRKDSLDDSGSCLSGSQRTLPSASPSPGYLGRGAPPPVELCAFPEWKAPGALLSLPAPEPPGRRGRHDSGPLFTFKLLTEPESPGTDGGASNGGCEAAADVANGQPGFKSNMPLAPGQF

Values joined by “and” are separate entries in the source; they are usually repeats but may differ in a detail not shown here. Identical values can stand only once.

For the compound `Fc1cccc2c1OC1CNCC1O2` (stereo unspecified) [CAS_105182-45-4], the Ki (commonly a measure of affinity in units of concentration, obtained from inhibition or displacement) in test [1] was 1.58 nM; in test [2], 631 nM; in test [3], 1.25 nM; in test [4], 0.5 nM; in test [5] it was 7.94 nM and 6.3 nM; in test [6], 1000 nM.
